Where two headings read alike, the source gives them in different places.
Assays:
[1] = test system: PMA-differentiated U937 cells; test: MTT Assay (cell viability); assay type: cell-based, Human; details: percentage loss of cell viability; for Cell Viability MTT Assay in D-U937 cells at 4 hr: 4 hr in 5% FCS; for Cell Viability MTT Assay in D-U937 cells at 24 hr: 24 hr in 10% FCS
In short: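 Differentiated U937 cells treated with compound for 4 hr (5% FCS) or 24 hr (10% FCS), then given MTT for 1 hr; formazan dissolved in DMSO and absorbance read at 550 nm. Viability loss expressed as % versus 0.5% DMSO vehicle.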

[2] = test system: H2O2 induced pAkt in D-U937 cells; test: PI3Kδ Cell Based Assay (H2O2 induced pAkt); details: Homo sapiens
In short: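 U937 cells differentiated to macrophage-type cells with PMA (100 ng/mL, 48 to 72 hr), then stimulated with H2O2. pAkt and total Akt detected by antibody-based immunoassay. Ratio of pAkt to total Akt signal used; IC50 from concentration-response curves of serially diluted compounds.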

[3] = Stereochemical analysis by chiral stationary phase HPLC (atropisomerism); assay type: physicochemical; details: for atropisomerism by chiral stationary phase HPLC: chiral stationary phase HPLC (16 different conditions for the examples)
Procedure: Each of these mobile phase are compatible with the column packings referred to above, providing sixteen different solvent and stationary phase permutations. Modifiers such as triethylamine (0.1%), formic acid (0.1%) may be added to improve the resolution
Semi-preparative Chiral Stationary Phase LC-UV was performed on a Gilson preparative modular system using a Daicel Chiralpak AD semi-prep column ([…], 20×250 mm) and a flow rate of 18 mL/min eluting with an isocratic method over 20 min using […] heptane:IPA and 0.1% triethylamine employing an injection volume of 1.0 mL.

recombinant PI3 kinase γ = recombinant PI3 kinase γ (Homo sapiens (Human), UniProt P48736); test: Enzyme Inhibition Assay (HTRF PI3K enzyme assay, TR-FRET); assay type: biochemical; details: activity range; read-out: PI3 Kinase Inhibition IC50 values at stated Isozyme γ
In short: (§1)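 Recombinant PI3Kα, δ or γ incubated with PIP2 substrate and compound for 2 hr at RT. Stop solution with biotin-PIP3 and GST-GRP1 PH domain/Eu-anti-GST/SA-APC detection mix added, then 15-18 hr at RT. PIP3 formed reduces the TR-FRET signal.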

recombinant PI3 kinase δ = recombinant PI3 kinase δ (Homo sapiens (Human), UniProt O00329); test: as above; assay type: biochemical; details: activity range; read-out: PI3 Kinase Inhibition IC50 values at stated Isozyme δ
In short: as §1

recombinant PI3 kinase α = recombinant PI3 kinase α (Homo sapiens (Human), UniProt P42336); test: as above; assay type: biochemical; details: activity range; read-out: PI3 Kinase Inhibition IC50 values at stated Isozyme α
In short: as §1

[4] = dU937, activity range, D-U937 cells, read-out: Cellular Activity IC50 values (H2O2 induced pAkt D-U937 Cells)
[5] = dU937, read-out: Cellular Activity IC50 values (H2O2 induced pAkt D-U937 Cells)

Chain of recombinant PI3 kinase δ (O00329 whole entry): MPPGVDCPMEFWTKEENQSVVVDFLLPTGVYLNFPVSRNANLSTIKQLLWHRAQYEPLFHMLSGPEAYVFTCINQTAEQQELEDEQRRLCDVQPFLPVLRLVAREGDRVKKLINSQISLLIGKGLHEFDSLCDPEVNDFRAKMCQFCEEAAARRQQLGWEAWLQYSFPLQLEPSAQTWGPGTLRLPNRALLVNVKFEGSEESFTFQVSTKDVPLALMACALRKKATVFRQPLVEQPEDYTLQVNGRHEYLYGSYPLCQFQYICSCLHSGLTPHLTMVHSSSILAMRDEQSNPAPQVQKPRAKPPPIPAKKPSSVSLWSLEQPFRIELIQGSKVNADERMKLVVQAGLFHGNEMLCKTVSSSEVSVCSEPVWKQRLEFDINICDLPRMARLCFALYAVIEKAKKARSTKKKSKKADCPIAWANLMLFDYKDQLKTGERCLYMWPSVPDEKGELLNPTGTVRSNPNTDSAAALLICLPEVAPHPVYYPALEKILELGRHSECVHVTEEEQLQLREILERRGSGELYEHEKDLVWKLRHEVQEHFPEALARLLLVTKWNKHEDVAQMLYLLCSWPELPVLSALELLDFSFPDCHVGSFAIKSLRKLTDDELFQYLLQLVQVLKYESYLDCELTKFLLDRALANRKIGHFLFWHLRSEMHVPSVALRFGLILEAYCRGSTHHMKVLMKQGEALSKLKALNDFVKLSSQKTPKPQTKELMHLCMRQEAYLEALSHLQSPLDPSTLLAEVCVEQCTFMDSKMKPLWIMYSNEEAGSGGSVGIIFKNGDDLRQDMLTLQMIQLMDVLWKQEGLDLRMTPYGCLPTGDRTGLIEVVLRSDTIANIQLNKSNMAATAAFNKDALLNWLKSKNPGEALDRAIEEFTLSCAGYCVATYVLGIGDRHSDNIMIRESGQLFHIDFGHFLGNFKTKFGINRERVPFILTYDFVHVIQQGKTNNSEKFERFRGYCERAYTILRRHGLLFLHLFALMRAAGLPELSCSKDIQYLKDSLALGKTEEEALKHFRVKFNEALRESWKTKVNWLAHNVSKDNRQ
Chain of recombinant PI3 kinase δ (P27986 whole entry partner): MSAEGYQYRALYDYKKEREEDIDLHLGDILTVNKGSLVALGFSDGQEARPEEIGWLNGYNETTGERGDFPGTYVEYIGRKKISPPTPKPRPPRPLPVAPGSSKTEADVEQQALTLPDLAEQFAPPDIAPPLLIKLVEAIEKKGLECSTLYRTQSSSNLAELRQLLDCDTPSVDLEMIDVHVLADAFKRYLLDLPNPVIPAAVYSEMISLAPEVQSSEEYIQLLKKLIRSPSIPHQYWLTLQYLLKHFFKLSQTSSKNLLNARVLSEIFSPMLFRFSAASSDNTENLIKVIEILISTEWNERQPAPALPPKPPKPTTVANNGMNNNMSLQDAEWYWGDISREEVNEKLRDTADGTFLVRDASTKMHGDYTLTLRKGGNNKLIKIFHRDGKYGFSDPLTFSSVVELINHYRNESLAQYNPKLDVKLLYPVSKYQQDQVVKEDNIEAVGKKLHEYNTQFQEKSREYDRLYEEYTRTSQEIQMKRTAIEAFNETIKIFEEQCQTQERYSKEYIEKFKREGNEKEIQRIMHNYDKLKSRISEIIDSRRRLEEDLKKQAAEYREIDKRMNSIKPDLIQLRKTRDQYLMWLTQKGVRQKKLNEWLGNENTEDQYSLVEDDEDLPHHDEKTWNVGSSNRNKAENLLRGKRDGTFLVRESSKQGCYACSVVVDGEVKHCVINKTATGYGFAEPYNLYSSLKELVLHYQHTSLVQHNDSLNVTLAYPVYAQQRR
Chain of recombinant PI3 kinase γ (P48736 whole entry, the tested form may be a part): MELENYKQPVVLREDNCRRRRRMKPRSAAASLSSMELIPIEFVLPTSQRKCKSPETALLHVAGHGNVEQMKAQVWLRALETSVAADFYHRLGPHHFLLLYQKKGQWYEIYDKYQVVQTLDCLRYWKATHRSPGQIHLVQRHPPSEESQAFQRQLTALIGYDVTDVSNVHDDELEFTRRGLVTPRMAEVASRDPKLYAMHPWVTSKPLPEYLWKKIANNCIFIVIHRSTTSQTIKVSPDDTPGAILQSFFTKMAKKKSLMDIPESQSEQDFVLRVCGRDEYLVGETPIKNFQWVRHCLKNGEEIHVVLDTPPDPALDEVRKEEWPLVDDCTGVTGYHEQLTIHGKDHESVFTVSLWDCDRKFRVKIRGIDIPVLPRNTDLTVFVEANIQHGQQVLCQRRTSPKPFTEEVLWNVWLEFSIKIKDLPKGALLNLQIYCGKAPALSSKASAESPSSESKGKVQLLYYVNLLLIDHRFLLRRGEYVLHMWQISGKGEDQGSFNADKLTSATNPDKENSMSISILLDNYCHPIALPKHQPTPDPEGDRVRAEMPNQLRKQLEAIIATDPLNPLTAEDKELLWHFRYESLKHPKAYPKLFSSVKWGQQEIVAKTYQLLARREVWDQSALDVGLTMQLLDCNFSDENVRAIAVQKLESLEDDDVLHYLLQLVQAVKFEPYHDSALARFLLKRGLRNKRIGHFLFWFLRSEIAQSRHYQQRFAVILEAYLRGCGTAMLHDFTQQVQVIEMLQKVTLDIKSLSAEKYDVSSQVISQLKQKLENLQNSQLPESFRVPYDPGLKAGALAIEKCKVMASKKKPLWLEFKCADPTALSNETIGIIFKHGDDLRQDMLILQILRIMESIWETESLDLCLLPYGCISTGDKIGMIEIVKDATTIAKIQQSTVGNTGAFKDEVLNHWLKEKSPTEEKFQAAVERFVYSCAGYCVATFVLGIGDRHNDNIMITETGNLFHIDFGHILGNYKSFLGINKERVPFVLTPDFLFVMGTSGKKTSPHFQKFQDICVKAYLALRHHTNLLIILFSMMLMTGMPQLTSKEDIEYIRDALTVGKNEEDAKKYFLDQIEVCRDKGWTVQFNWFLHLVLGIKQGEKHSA
Chain of recombinant PI3 kinase α (P42336 whole entry): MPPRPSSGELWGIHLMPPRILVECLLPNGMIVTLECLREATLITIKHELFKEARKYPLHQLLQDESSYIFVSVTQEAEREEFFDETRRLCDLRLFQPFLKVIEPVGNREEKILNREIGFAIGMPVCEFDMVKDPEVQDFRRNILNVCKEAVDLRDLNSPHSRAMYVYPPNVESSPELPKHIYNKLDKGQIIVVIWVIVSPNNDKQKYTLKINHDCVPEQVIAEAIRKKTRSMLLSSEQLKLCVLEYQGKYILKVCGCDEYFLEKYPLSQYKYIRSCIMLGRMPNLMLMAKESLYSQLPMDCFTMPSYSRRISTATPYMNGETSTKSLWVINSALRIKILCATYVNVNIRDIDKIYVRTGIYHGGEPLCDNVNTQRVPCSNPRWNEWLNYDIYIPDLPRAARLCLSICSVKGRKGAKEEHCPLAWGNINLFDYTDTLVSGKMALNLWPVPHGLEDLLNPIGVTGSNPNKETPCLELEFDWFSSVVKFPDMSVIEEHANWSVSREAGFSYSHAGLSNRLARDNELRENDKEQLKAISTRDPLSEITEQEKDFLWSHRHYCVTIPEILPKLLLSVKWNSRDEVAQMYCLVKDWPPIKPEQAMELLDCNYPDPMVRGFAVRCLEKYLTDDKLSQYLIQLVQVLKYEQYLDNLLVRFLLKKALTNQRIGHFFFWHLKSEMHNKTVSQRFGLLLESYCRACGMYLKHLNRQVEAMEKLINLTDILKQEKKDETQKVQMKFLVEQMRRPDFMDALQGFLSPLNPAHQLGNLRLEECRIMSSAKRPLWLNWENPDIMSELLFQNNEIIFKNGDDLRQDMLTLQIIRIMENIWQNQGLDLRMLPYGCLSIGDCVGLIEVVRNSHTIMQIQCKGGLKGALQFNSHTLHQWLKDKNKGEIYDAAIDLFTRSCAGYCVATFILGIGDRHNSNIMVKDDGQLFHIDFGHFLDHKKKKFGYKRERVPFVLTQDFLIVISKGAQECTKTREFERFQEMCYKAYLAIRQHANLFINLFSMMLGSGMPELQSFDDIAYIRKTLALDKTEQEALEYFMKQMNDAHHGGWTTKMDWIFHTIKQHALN
Chain of recombinant PI3 kinase α (P27986 whole entry partner): as the sequence (P27986 whole entry partner) above

Structure (SMILES)	IC50 [2, 4] [nM]	IC50 (recombinant PI3 kinase γ) [nM]	IC50 (recombinant PI3 kinase δ) [nM]	IC50 (recombinant PI3 kinase α) [nM]	interconversion of separated atropisomers ([3]; ambient and elevated temperatures, over several days)	Cell Viability MTT Assay in D-U937 cells at 4 hr [1]	Cell Viability MTT Assay in D-U937 cells at 24 hr [1]	atropisomerism by chiral stationary phase HPLC [3]	IC50 [2, 5] [nM]
C#Cc1cccc2nc(Cn3nc(-c4cccc(O)c4)c4c(N)ncnc43)n(Cc3cccc(Cl)c3)c(=O)c12 [Example 10, 2-((4-Amino-3-(3-hydroxyphenyl)-1H-pyrazolo[3,4-d]pyrimidin-1-yl)methyl)-3-(3-chlorobenzyl)-5-ethynyl quinazolin-4(3H)-one]		50 to 1000	< 50	50 to 1000		− (− <30%)	− (− <30%)	no evidence for atropisomerism was observed	< 10
C#Cc1cccc2nc(Cn3nc(-c4ccc(O)cc4)c4c(N)ncnc43)n(Cc3cccc(Cl)c3F)c(=O)c12 [Example 33, 2-((4-Amino-3-(4-hydroxyphenyl)-1H-pyrazolo[3,4-d]pyrimidin-1-yl)methyl)-3-(3-chloro-2-fluorobenzyl)-5-ethynylquinazolin-4(3H)-one]	< 10	50 to 1000	< 50	50 to 1000		− (− <30%)	− (− <30%)	no evidence for atropisomerism was observed	
C#Cc1cccc2nc(Cn3nc(-c4cccc(O)c4)c4c(N)ncnc43)n(Cc3ccccc3F)c(=O)c12 [Example 12, 2-((4-Amino-3-(3-hydroxyphenyl)-1H-pyrazolo[3,4-d]pyrimidin-1-yl)methyl)-5-ethynyl-3-(2-fluorobenzyl) quinazolin-4(3H)-one]		50 to 1000	< 50	50 to 1000		+ (+ >30%)	− (− <30%)	no evidence for atropisomerism was observed	< 10
C#Cc1cccc2nc(Cn3nc(-c4cccc(O)c4)c4c(N)ncnc43)n(Cc3cc(C)on3)c(=O)c12 [Example 31, 2-((4-Amino-3-(3-hydroxyphenyl)-1H-pyrazolo[3,4-d]pyrimidin-1-yl)methyl)-5-ethynyl-3-((5-methylisoxazol-3-yl)methyl)quinazolin-4(3H)-one]	< 10	50 to 1000	< 50	50 to 1000		− (− <30%)	− (− <30%)	no evidence for atropisomerism was observed	
Cc1ccccc1-n1c(Cn2nc(-c3cccc(O)c3)c3c(N)ncnc32)nc2cccc(C)c2c1=O [PIK294, reference compound]					no detectable signs of interconversion			1:1 mixture of enantiomeric atropisomers	
CN(C)C1CCN(C(=O)CCCC#Cc2cccc3nc(Cn4nc(-c5ccc(O)cc5)c5c(N)ncnc54)n(Cc4ccccc4Cl)c(=O)c23)CC1 [Example 81, 2-((4-Amino-3-(4-hydroxyphenyl)-1H-pyrazolo[3,4-d]pyrimidin-1-yl)methyl)-3-(2-chlorobenzyl)-5-(6-(4-(dimethylamino)piperidin-1-yl)-6-oxohex-1-ynyl) quinazolin-4(3H)-one]	< 10	50 to 1000	< 50	50 to 1000		− (− <30%)	− (− <30%)		
COc1cccc(Cn2c(Cn3nc(-c4ccc(O)cc4)c4c(N)ncnc43)nc3cccc(C#CCCCC(=O)N4CCOCC4)c3c2=O)c1F [Example 64, 2-((4-Amino-3-(4-hydroxyphenyl)-1H-pyrazolo[3,4-d]pyrimidin-1-yl)methyl)-3-(2-fluoro-3-methoxybenzyl)-5-(6-morpholino-6-oxohex-1-yn-1-yl)quinazolin-4(3H)-one]	< 10	< 50	< 50	50 to 1000		− (− <30%)	− (− <30%)		
C#Cc1cccc2nc(Cn3nc(-c4ccc(O)c(F)c4)c4c(N)ncnc43)n(Cc3ccccc3Cl)c(=O)c12 [Example 36, 2-((4-Amino-3-(3-fluoro-4-hydroxyphenyl)-1H-pyrazolo[3,4-d]pyrimidin-1-yl)methyl)-3-(2-chlorobenzyl)-5-ethynylquinazolin-4(3H)-one]	< 10	> 1000	< 50	50 to 1000		− (− <30%)	− (− <30%)		
C#Cc1cccc2nc(Cn3nc(-c4ccc(F)c(O)c4)c4c(N)ncnc43)n(Cc3ccccc3Cl)c(=O)c12 [Example 51, 2-((4-Amino-3-(4-fluoro-3-hydroxyphenyl)-1H-pyrazolo [3,4-d]pyrimidin-1-yl)methyl)-3-(2-chlorobenzyl)-5-ethynylquinazolin-4(3H)-one]	< 10	50 to 1000	< 50	50 to 1000		− (− <30%)	− (− <30%)		
Nc1ncnc2c1c(-c1ccc(O)cc1)nn2Cc1nc2cccc(C#CCCCC(=O)Nc3ccncc3)c2c(=O)n1Cc1ccccc1Cl [Example 79, 6-(2-((4-Amino-3-(4-hydroxyphenyl)-1H-pyrazolo[3,4-d]pyrimidin-1-yl)methyl)-3-(2-chlorobenzyl)-4-oxo-3,4-dihydroquinazolin-5-yl)-N-(pyridin-4-yl)hex-5-ynamide]	< 10	50 to 1000	< 50	50 to 1000		− (− <30%)	− (− <30%)		

The next lines start with results.

IC50 [2, 4] [nM]	IC50 (recombinant PI3 kinase γ) [nM]	IC50 (recombinant PI3 kinase δ) [nM]	IC50 (recombinant PI3 kinase α) [nM]	interconversion of separated atropisomers ([3]; ambient and elevated temperatures, over several days)	Structure (SMILES)	Cell Viability MTT Assay in D-U937 cells at 4 hr [1]	Cell Viability MTT Assay in D-U937 cells at 24 hr [1]	atropisomerism by chiral stationary phase HPLC [3]	IC50 [2, 5] [nM]
< 10	50 to 1000	< 50	50 to 1000		C#Cc1cccc2nc(Cn3nc(-c4ccc(O)cc4)c4c(N)ncnc43)n(Cc3cccc(OC)c3)c(=O)c12 [Example 14, 2-((4-Amino-3-(4-hydroxyphenyl)-1H-pyrazolo[3,4-d]pyrimidin-1-yl)methyl)-5-ethynyl-3-(3-methoxybenzyl)quinazolin-4(3H)-one]	− (− <30%)	− (− <30%)	no evidence for atropisomerism was observed	
< 10	50 to 1000	< 50	50 to 1000		C#Cc1cccc2nc(Cn3nc(-c4ccc(O)cc4)c4c(N)ncnc43)n(Cc3cccc(C(F)(F)F)c3)c(=O)c12 [Example 16, 2-((4-Amino-3-(4-hydroxyphenyl)-1H-pyrazolo[3,4-d]pyrimidin-1-yl)methyl)-5-ethynyl-3-(3-(trifluoromethyl)benzyl)quinazolin-4(3H)-one]	− (− <30%)	− (− <30%)	no evidence for atropisomerism was observed	
< 10	50 to 1000	< 50	50 to 1000		C#Cc1cccc2nc(Cn3nc(-c4ccc(O)cc4)c4c(N)ncnc43)n(Cc3c(F)cccc3F)c(=O)c12 [Example 34, 2-((4-Amino-3-(4-hydroxyphenyl)-1H-pyrazolo[3,4-d]pyrimidin-1-yl)methyl)-3-(2,6-difluorobenzyl)-5-ethynylquinazolin-4(3H)-one]	− (− <30%)	− (− <30%)	no evidence for atropisomerism was observed	
< 10	> 1000	< 50	50 to 1000		C#Cc1cccc2nc(Cn3nc(-c4cccc(O)c4)c4c(N)ncnc43)n(Cc3cccc(C(F)(F)F)c3)c(=O)c12 [Example 17, 2-((4-Amino-3-(3-hydroxyphenyl)-1H-pyrazolo[3,4-d]pyrimidin-1-yl)methyl)-5-ethynyl-3-(3-(trifluoromethyl)benzyl)quinazolin-4(3H)-one]	− (− <30%)	− (− <30%)	no evidence for atropisomerism was observed	
< 10	50 to 1000	< 50	50 to 1000		C#Cc1cccc2nc(Cn3nc(-c4ccc(O)cc4)c4c(N)ncnc43)n(Cc3ccc(Cl)cc3)c(=O)c12 [Example 18, 2-((4-Amino-3-(4-hydroxyphenyl)-1H-pyrazolo[3,4-d]pyrimidin-1-yl)methyl)-3-(4-chlorobenzyl)-5-ethynyl quinazolin-4(3H)-one]	− (− <30%)	− (− <30%)	no evidence for atropisomerism was observed	
